Reference: publication PMC9926234, “Iterative computational design and crystallographic screening identifies potent inhibitors targeting the Nsp3 macrodomain of SARS-CoV-2” (Proceedings of the National Academy of Sciences of the …, 2023)
pIC50, pKi: −log10 of the molar value. Several values for one entry are separate records, joined by “and”; a condition that tells them apart may be missing. Identical values can stand only once.

Biological target: T1, SARS-CoV-2 NSP3 Mac1 (Severe acute respiratory syndrome coronavirus 2, UniProt P0DTD1)
Experiment: not given
Assay type: binding
Conditions: PanDDA 1-BDC value of the event; crystal soak, compound concentration 100 mM; per dataset

Structure (SMILES)	1-BDC
O=C(Nc1ccccc1)Nc1ccc(C(=O)NC2c3cccc(O)c3CC2C(=O)O)cc1 (centres unmarked) [Z8539_0023]	0.17
O=C(Nc1ccc(C(=O)NCc2c(C(=O)O)sc3ccccc23)cc1)NC1CC1 [Z8539_0025]	0.24
O=C(Nc1ccc(C(=O)NCc2c(C(=O)O)oc3ccccc23)cc1)NC1CC1 [Z8539_0026]	0.3
O=C(Nc1ccc(C(=O)NCc2c(C(=O)O)[nH]c3ccccc23)cc1)NC1CC1 [Z8539_0027]	0.29
NC(=O)Nc1ccc(C(=O)NC2c3cccc(O)c3CC2C(=O)O)cc1 (centres unmarked) [Z8539_0041]	0.24
CC(C)NC(=O)Nc1ccc(C(=O)NC2c3cccc(O)c3CC2C(=O)O)cc1 (centres unmarked) [Z8539_0046]	0.23
O=C(NC1c2ccccc2CC1C(=O)O)c1ccc(NC(=O)C2CC2)cc1 (centres unmarked) [Z9604]	0.04

Same assay, conditions: PanDDA event map, 1 minus background density correction; crystal soaking of Mac1

Structure (SMILES)	1-BDC
O=C(Nc1ccccc1)Nc1ccc(C(=O)NC2c3cccc(O)c3CC2C(=O)O)cc1 (centres unmarked) [Z8539_0023]	0.17
O=C(Nc1ccc(C(=O)NCc2c(C(=O)O)sc3ccccc23)cc1)NC1CC1 [Z8539_0025]	0.24
O=C(Nc1ccc(C(=O)NCc2c(C(=O)O)oc3ccccc23)cc1)NC1CC1 [Z8539_0026]	0.33
O=C(Nc1ccc(C(=O)NCc2c(C(=O)O)[nH]c3ccccc23)cc1)NC1CC1 [Z8539_0027]	0.23
NC(=O)Nc1ccc(C(=O)NC2c3cccc(O)c3CC2C(=O)O)cc1 (centres unmarked) [Z8539_0041]	0.24
CC(C)NC(=O)Nc1ccc(C(=O)NC2c3cccc(O)c3CC2C(=O)O)cc1 (centres unmarked) [Z8539_0046]	0.21
O=C(O)CC1CN(c2ncnc3[nH]ccc23)CCO1 (centres unmarked) [Z9572]	0.09
O=C(NC1c2ccccc2CC1C(=O)O)c1ccc(NC(=O)C2CC2)cc1 (centres unmarked) [Z9604]	0.04

Same assay, conditions: crystal soak, compound concentration 100 mM; per dataset

Structure (SMILES)	PanDDA hit?
O=C(Nc1ccccc1)Nc1ccc(C(=O)NC2c3cccc(O)c3CC2C(=O)O)cc1 (centres unmarked) [Z8539_0023]	TRUE
O=C(Nc1ccc(C(=O)NCc2c(C(=O)O)sc3ccccc23)cc1)NC1CC1 [Z8539_0025]	TRUE
O=C(Nc1ccc(C(=O)NCc2c(C(=O)O)oc3ccccc23)cc1)NC1CC1 [Z8539_0026]	TRUE
O=C(Nc1ccc(C(=O)NCc2c(C(=O)O)[nH]c3ccccc23)cc1)NC1CC1 [Z8539_0027]	TRUE
NC(=O)Nc1ccc(C(=O)NC2c3cccc(O)c3CC2C(=O)O)cc1 (centres unmarked) [Z8539_0041]	TRUE
CC(C)NC(=O)Nc1ccc(C(=O)NC2c3cccc(O)c3CC2C(=O)O)cc1 (centres unmarked) [Z8539_0046]	TRUE
O=C(NC1c2ccccc2CC1C(=O)O)c1ccc(NC(=O)C2CC2)cc1 (centres unmarked) [Z9604]	TRUE

Same assay, conditions: ligand modeled from this dataset; compound concentration 100 mM, Echo dispense volume 40 or 80 nl

Structure (SMILES)	Modeled?
O=C(Nc1ccc(C(=O)NCc2c(C(=O)O)sc3ccccc23)cc1)NC1CC1 [Z8539_0025]	TRUE
O=C(Nc1ccc(C(=O)NCc2c(C(=O)O)oc3ccccc23)cc1)NC1CC1 [Z8539_0026]	TRUE
O=C(Nc1ccc(C(=O)NCc2c(C(=O)O)[nH]c3ccccc23)cc1)NC1CC1 [Z8539_0027]	TRUE
CC(C)NC(=O)Nc1ccc(C(=O)NC2c3cccc(O)c3CC2C(=O)O)cc1 (centres unmarked) [Z8539_0046]	TRUE

Same assay, conditions: ligand modeled in structure, crystal soak, Compound_concentration 100 mM

Structure (SMILES)	Modeled?
O=C(O)CC1CN(c2ncnc3[nH]ccc23)CCO1 (centres unmarked) [Z9572]	TRUE

Same assay, conditions: ligand modeled in the crystal structure; crystal soak, compound concentration 100 mM; per dataset

Structure (SMILES)	Modeled?
O=C(Nc1ccccc1)Nc1ccc(C(=O)NC2c3cccc(O)c3CC2C(=O)O)cc1 (centres unmarked) [Z8539_0023]	TRUE
NC(=O)Nc1ccc(C(=O)NC2c3cccc(O)c3CC2C(=O)O)cc1 (centres unmarked) [Z8539_0041]	TRUE
O=C(NC1c2ccccc2CC1C(=O)O)c1ccc(NC(=O)C2CC2)cc1 (centres unmarked) [Z9604]	TRUE

Same assay, conditions: ligand occupancy after refinement (phenix.refine); crystal soaking of Mac1

Structure (SMILES)	Refined occupancy
O=C(Nc1ccccc1)Nc1ccc(C(=O)NC2c3cccc(O)c3CC2C(=O)O)cc1 (centres unmarked) [Z8539_0023]	34
O=C(Nc1ccc(C(=O)NCc2c(C(=O)O)sc3ccccc23)cc1)NC1CC1 [Z8539_0025]	48
O=C(Nc1ccc(C(=O)NCc2c(C(=O)O)oc3ccccc23)cc1)NC1CC1 [Z8539_0026]	66
O=C(Nc1ccc(C(=O)NCc2c(C(=O)O)[nH]c3ccccc23)cc1)NC1CC1 [Z8539_0027]	46
NC(=O)Nc1ccc(C(=O)NC2c3cccc(O)c3CC2C(=O)O)cc1 (centres unmarked) [Z8539_0041]	48
CC(C)NC(=O)Nc1ccc(C(=O)NC2c3cccc(O)c3CC2C(=O)O)cc1 (centres unmarked) [Z8539_0046]	42
O=C(O)CC1CN(c2ncnc3[nH]ccc23)CCO1 (centres unmarked) [Z9572]	18
O=C(NC1c2ccccc2CC1C(=O)O)c1ccc(NC(=O)C2CC2)cc1 (centres unmarked) [Z9604]	8

Same assay, conditions: overall hit flag: binding in crystallographic soaking or the HTRF-based binding assay

Structure (SMILES)	HIT*
O=C(O)CC1CN(c2ncnc3[nH]ccc23)CCO1 (centres unmarked) [Z9572]	Y
O=C(NC1c2ccccc2CC1C(=O)O)c1ccc(NC(=O)C2CC2)cc1 (centres unmarked) [Z9604]	Y

Same assay, conditions: true hit = binding in crystallographic soaking or the HTRF-based binding assay

Structure (SMILES)	HIT*
O=C(Nc1ccccc1)Nc1ccc(C(=O)NC2c3cccc(O)c3CC2C(=O)O)cc1 (centres unmarked) [Z8539_0023]	Y
O=C(Nc1ccc(C(=O)NCc2c(C(=O)O)sc3ccccc23)cc1)NC1CC1 [Z8539_0025]	Y
O=C(Nc1ccc(C(=O)NCc2c(C(=O)O)oc3ccccc23)cc1)NC1CC1 [Z8539_0026]	Y
O=C(Nc1ccc(C(=O)NCc2c(C(=O)O)[nH]c3ccccc23)cc1)NC1CC1 [Z8539_0027]	Y
NC(=O)Nc1ccc(C(=O)NC2c3cccc(O)c3CC2C(=O)O)cc1 (centres unmarked) [Z8539_0041]	Y
CC(C)NC(=O)Nc1ccc(C(=O)NC2c3cccc(O)c3CC2C(=O)O)cc1 (centres unmarked) [Z8539_0046]	Y

Biological target: T1, SARS-CoV-2 NSP3 Mac1
Experiment: not given
Assay type: binding
Parameters: contains a conserved macrodomain enzyme (Mac1)
Conditions: DSF
Procedure, shortened: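 ΔTma values are thermal shifts relative to a co-located DMSO-only control, read with 5 µM Fluorescent Yellow dye. Each compound was tested in triplicate over seven concentrations (two-fold steps, top 1,000 or 100 μM). Spearman correlation of concentration versus ΔTma tested whether the shift was dose-responsive.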

Structure (SMILES)	thermal upshift
O=C(Nc1ccccc1)Nc1ccc(C(=O)NC2c3cccc(O)c3CC2C(=O)O)cc1 (centres unmarked) [Z8539_0023]	9 °C

Same assay, conditions: DSF dose responsiveness, 1 µM nsp3 mac1; adj p given

Structure (SMILES)	Spearman est (compound concentration vs apparent Tm)
O=C(Nc1ccccc1)Nc1ccc(C(=O)NC2c3cccc(O)c3CC2C(=O)O)cc1 (centres unmarked) [Z8539_0023]	0.81
O=C(Nc1ccc(C(=O)NCc2c(C(=O)O)sc3ccccc23)cc1)NC1CC1 [Z8539_0025]	0.17
O=C(Nc1ccc(C(=O)NCc2c(C(=O)O)oc3ccccc23)cc1)NC1CC1 [Z8539_0026]	0.37
O=C(Nc1ccc(C(=O)NCc2c(C(=O)O)[nH]c3ccccc23)cc1)NC1CC1 [Z8539_0027]	0.7
NC(=O)Nc1ccc(C(=O)NC2c3cccc(O)c3CC2C(=O)O)cc1 (centres unmarked) [Z8539_0041]	0.6
CC(C)NC(=O)Nc1ccc(C(=O)NC2c3cccc(O)c3CC2C(=O)O)cc1 (centres unmarked) [Z8539_0046]	0.49
O=C(O)CC1CN(c2ncnc3[nH]ccc23)CCO1 (centres unmarked) [Z9572]	0.62
O=C(NC1c2ccccc2CC1C(=O)O)c1ccc(NC(=O)C2CC2)cc1 (centres unmarked) [Z9604]	0.76

Same assay, conditions: maximal thermal upshift

Structure (SMILES)	DSF max dTma
O=C(Nc1ccccc1)Nc1ccc(C(=O)NC2c3cccc(O)c3CC2C(=O)O)cc1 (centres unmarked) [Z8539_0023]	9.9 ˚C
O=C(Nc1ccc(C(=O)NCc2c(C(=O)O)sc3ccccc23)cc1)NC1CC1 [Z8539_0025]	0.91 ˚C
O=C(Nc1ccc(C(=O)NCc2c(C(=O)O)oc3ccccc23)cc1)NC1CC1 [Z8539_0026]	3.52 ˚C
O=C(Nc1ccc(C(=O)NCc2c(C(=O)O)[nH]c3ccccc23)cc1)NC1CC1 [Z8539_0027]	6.22 ˚C
NC(=O)Nc1ccc(C(=O)NC2c3cccc(O)c3CC2C(=O)O)cc1 (centres unmarked) [Z8539_0041]	6 ˚C
CC(C)NC(=O)Nc1ccc(C(=O)NC2c3cccc(O)c3CC2C(=O)O)cc1 (centres unmarked) [Z8539_0046]	6.41 ˚C

Same assay, conditions: maximal thermal upshift vs DMSO control

Structure (SMILES)	DSF max dTma
O=C(O)CC1CN(c2ncnc3[nH]ccc23)CCO1 (centres unmarked) [Z9572]	0.66 °C
O=C(NC1c2ccccc2CC1C(=O)O)c1ccc(NC(=O)C2CC2)cc1 (centres unmarked) [Z9604]	0.79 °C

Biological target: T1, SARS-CoV-2 NSP3 Mac1
Experiment: biochemical
Assay type: binding
Conditions: not given

Structure (SMILES)	binding to Mac1 in the HTRF assay, result in words
NC(=O)Nc1ccc(C(=O)NC2c3cccc(O)c3CC2C(=O)O)cc1 (centres unmarked) [Z8539_0041]	did not substantially change binding affinity
CC(C)NC(=O)Nc1ccc(C(=O)NC2c3cccc(O)c3CC2C(=O)O)cc1 (centres unmarked) [Z8539_0046]	did not substantially change binding affinity

Same assay, conditions: HTRF ADPr-peptide displacement from SARS-CoV-2 Mac1; read-out: IC50

Structure (SMILES)	pIC50
O=C(Nc1ccc(C(=O)NCc2c(C(=O)O)sc3ccccc23)cc1)NC1CC1 [Z8539_0025]	4.70
O=C(Nc1ccc(C(=O)NCc2c(C(=O)O)oc3ccccc23)cc1)NC1CC1 [Z8539_0026]	4.08
O=C(O)CC1CN(c2ncnc3[nH]ccc23)CCO1 (centres unmarked) [Z9572]	3.64 and 3.63
O=C(NC1c2ccccc2CC1C(=O)O)c1ccc(NC(=O)C2CC2)cc1 (centres unmarked) [Z9604]	< 3.60

Same assay, conditions: HTRF; read-out: IC50

Structure (SMILES)	pIC50
O=C(Nc1ccc(C(=O)NCc2c(C(=O)O)sc3ccccc23)cc1)NC1CC1 [Z8539_0025]	4.69
O=C(Nc1ccc(C(=O)NCc2c(C(=O)O)oc3ccccc23)cc1)NC1CC1 [Z8539_0026]	4.08
NC(=O)Nc1ccc(C(=O)NC2c3cccc(O)c3CC2C(=O)O)cc1 (centres unmarked) [Z8539_0041]	5.89
CC(C)NC(=O)Nc1ccc(C(=O)NC2c3cccc(O)c3CC2C(=O)O)cc1 (centres unmarked) [Z8539_0046]	6.10

Same assay, conditions: HTRF; several values in a cell are separate determinations; read-out: IC50

Structure (SMILES)	pIC50
O=C(O)CC1CN(c2ncnc3[nH]ccc23)CCO1 (centres unmarked) [Z9572]	3.64

Same assay, conditions: IC50, HTRF ADPr-peptide displacement from SARS-CoV-2 Mac1

Structure (SMILES)	pIC50
O=C(Nc1ccccc1)Nc1ccc(C(=O)NC2c3cccc(O)c3CC2C(=O)O)cc1 (centres unmarked) [Z8539_0023]	6.30
O=C(Nc1ccc(C(=O)NCc2c(C(=O)O)[nH]c3ccccc23)cc1)NC1CC1 [Z8539_0027]	5.12

Same assay, conditions: Ki estimation from HTRF-derived IC50, Cheng-Prusoff, peptide 400nM, Kd 2.68µM; read-out: Ki***

Structure (SMILES)	pKi
O=C(Nc1ccc(C(=O)NCc2c(C(=O)O)sc3ccccc23)cc1)NC1CC1 [Z8539_0025]	4.75
O=C(Nc1ccc(C(=O)NCc2c(C(=O)O)oc3ccccc23)cc1)NC1CC1 [Z8539_0026]	4.14
NC(=O)Nc1ccc(C(=O)NC2c3cccc(O)c3CC2C(=O)O)cc1 (centres unmarked) [Z8539_0041]	5.96
CC(C)NC(=O)Nc1ccc(C(=O)NC2c3cccc(O)c3CC2C(=O)O)cc1 (centres unmarked) [Z8539_0046]	6.15
O=C(O)CC1CN(c2ncnc3[nH]ccc23)CCO1 (centres unmarked) [Z9572]	3.71

Same assay, conditions: Ki***, Ki estimation from HTRF-derived IC50, Cheng-Prusoff, peptide 400nM, Kd 2.68µM

Structure (SMILES)	pKi
O=C(Nc1ccccc1)Nc1ccc(C(=O)NC2c3cccc(O)c3CC2C(=O)O)cc1 (centres unmarked) [Z8539_0023]	6.40
O=C(Nc1ccc(C(=O)NCc2c(C(=O)O)[nH]c3ccccc23)cc1)NC1CC1 [Z8539_0027]	5.18
